Assay results taken from US8404727B2, “Pharmaceutical composition that includes a dipeptidyl peptidase-IV inhibitor” (Glenmark Pharmaceuticals S.A., priority 2009, dated 2013).
Where a name gives a salt, the structure may show the parent alone.

Experiments:
[1] = Compatibility study of melogliptin mesylate with various excipients: related substances (RS) by HPLC; format: physicochemical; conditions: sealed glass vial
Source text: Melogliptin Mesylate was Subjected for Compatibility Studies in Solid State Condition with Dry Mixing Technique Using the Following Protocol:
Melogliptin mesylate and various excipients in predetermined w/w ratios were mixed geometrically. Melogliptin mesylate to excipients ratios were selected based on the excipients concentration expected to be used during the development of the formulation. The placebo of each excipient used was kept on respective stability conditions as control.
The samples were stored in glass vials. The vials were closed with rubber stoppers and sealed with aluminum seals, and kept in upright position.
The vials were stored at three storage conditions: 25° C., 30° C. and 40° C.
The samples were analyzed initially, then followed by the end of 1 week, 2 weeks and 4 weeks time periods for related substances (RS), as monitored by HPLC and differential scanning calorimetry (DSC), to study the interaction between melogliptin and various excipients.
The compatibility data in terms of RS generated initially and upon 4 weeks (“4 W”) storage at about 40° C. of various samples are tabulated below.
Brief Analytical Method for Determination of RS in Melogliptin Mesylate:
A reversed-phase gradient HPLC method was developed. The analysis was performed using C18 HPLC column (Phenomenex Gemini 110 A, C-18, 50×4.6 mm, 3 μm). The mobile phase was a gradient mixture of a solution of 1.26 g of ammonium formate in 1000 ml of purified water adjusted to pH 8.4 using 25% v/v ammonia solution (Mobile Phase A) and a solution of 1.26 g of ammonium formate in a mixture of purified water (800 ml) and acetonitrile (200 ml) adjusted to pH 8.4 using 25% v/v ammonia solution (Mobile Phase B). The gradient program is provided below. The flow rate was 1.0 ml/min; injection volume 20 μl; and column temperature was 25° C. Suitable dilutions of the placebo, standard and test samples were injected in the column. Areas for impurity A (eluted at the relative retention time of 0.51) and total RS in the chromatogram were integrated, and accordingly the contents of impurity A and total RS were determined.

[2] = 4 weeks storage at about 40° C.
[3] = dry mix of melogliptin mesylate with excipient, initial

RS by HPLC, Impurity A, 4 W [1, 2] [% w/w]	RS by HPLC, Total RS, 4 W [1, 2] [% w/w]	RS by HPLC, Impurity A, Initial [1, 3] [% w/w]	RS by HPLC, Total RS, Initial [1, 3] [% w/w]	melting point [°C]	Structure (SMILES)
0.05	0.13	0.02	0.12	–	N#C[C@@H]1C[C@H](F)CN1C(=O)CN[C@@H]1CC[C@H](Cn2cncn2)C1 [Melogliptin mesylate, (2S,4S)-1-{2-[(3S,1R)-3-(1H-1,2,4-triazol-1-ylmethyl)cyclopentylamino]acetyl}-4-fluoropyrrolidine-2-carbonitrile]
–	–	–	–	158 to 162	N=C1[C@@H]2C[C@H](F)CN2C(=O)CN1[C@@H]1CC[C@H](Cn2cncn2)C1 (stereo in doubt) [Example 11, 7-fluoro-1-imino-2-[3-(1H-1,2,4-triazol-1-ylmethyl)cyclopentyl] hexahydropyrrolo[1,2-a]pyrazin-4(1H)-one]
–	–	–	–	150 to 160	N=C1[C@@H]2C[C@H](F)CN2C(=O)CN1[C@@H]1CC[C@H](Cn2cncn2)C1 (stereo in doubt) (as salt: mesylate) [impurity A, 7-fluoro-1-imino-2-[3-(1H-1,2,4-triazol-1-ylmethyl)cyclopentyl] hexahydropyrrolo[1,2-a]pyrazin-4(1H)-one mesylate]
